One test has as its system Alzheimer's disease. Kind of test: APP×PS1 transgenic mouse model of Alzheimer's disease. Type of test: in vivo. Conditions: intraperitoneal injection, twice a week, 11 consecutive weeks; cerebral cortex; FIG. 8. On the procedure: In this example, the efficacy of the compounds of the present disclosure was tested on Alzheimer's disease in an animal model of Alzheimer's disease. Briefly, a transgenic mouse model of APP×PS1 (purchased from Cyagen Biosciences) was selected and the compound of the present disclosure was administered by intraperitoneal injection for 11 consecutive weeks, twice a week. Alterations in amyloid in the cerebral cortex of the mice were observed.

In another test the test system is hepatic fibrosis. Put plainly: CCl4 mouse model of hepatic fibrosis. The class given is in vivo, mice. Conditions: intraperitoneal (IP) injection twice a week from third week of modelling; FIG. 9. On the procedure: In this example, the efficacy of the compounds of the present disclosure was tested on hepatic fibrosis in an animal model of hepatic fibrosis. Briefly, C57BL/6N mice, male, 7 to 8 weeks old, 24 to 28 g of body weight, were used. The mouse model of hepatic fibrosis was induced by intraperitoneal injection of CCl4 solution at a dosage of 1 mL/kg, with a dosing frequency of 2 times/week, and a modelling cycle of 6 weeks. Dosing via intraperitoneal injection was started from the third week of modelling twice a week. At the end of the test, serum was collected, and liver tissue was taken for Masson staining index assay.

A further test has as its system renal fibrosis. Kind of test: Renal fibrosis animal model (ureter ligation). The class given is in vivo, mice. Conditions: intraperitoneal (IP) injection from 2nd week of modelling; FIG. 11. The procedure: In this example, the efficacy of the compound of the present disclosure was tested on renal fibrosis in an animal model of renal fibrosis. Briefly, C57BL/6J mice, male, 7 to 8 weeks old, were used. The mice were anaesthetized, made to lie supine on a foam board, and disinfected with iodophor, and a longitudinal incision was made in the skin in the middle of the lower abdomen to locate the white line of the abdominal muscle, where the abdominal muscle, fascia and peritoneal layer were dissected. After exposing the surgical field, the kidneys were exposed by pushing the stomach and mesentery of the mice to the right side with a gauze soaked with saline. The model of renal fibrosis was constructed by locating the transparent ureter from the renal pelvis along the renal artery, separating the left ureter, ligating the upper ⅓ of the left ureter, suturing the incision layer by layer, and finally disinfecting with iodophor. Dosing via intraperitoneal injection was started from the 2nd week of modelling. At the end of the experiment, the mouse serum was collected and kidney tissues were taken for Masson staining index assay.

For another test, the system named is osteoarthritis. Kind of test: Osteoarthritis animal model. Type of test: in vivo, mice. Conditions: intra-articular injection; FIG. 7. On the procedure:
In this example, the efficacy of the compounds of the present disclosure was tested on osteoarthritis in an osteoarthritis animal model.
The osteoarthritis animal model was constructed by the following steps. The mice were anesthetized with isoflurane, and fixed. The hair on the right hind limb of the mice was shaved and the skin was disinfected with alcohol, and the skin of the joints was cut. Under an optical microscope, the inside of the right knee joint was incised longitudinally with a blade, without cutting the patellar ligament. The patellar ligament was pulled to one side with constant hemostasis by compression with sterile cotton swabs such that the joint cavity was fully exposed. Saline was added dropwise in time to avoid the drying up of the joint cavity. The excess muscle tissue was gently separated with a blunt forceps to expose the meniscus ligament. The anterior cruciate ligament was found in the depth of the joint cavity and cut with micro scissor. Then the wound was disinfected with penicillin solution, the muscle was sutured with sterile needle and thread, and the skin tissue was finally sutured. The efficacy of the drug was determined by intra-articular injection administration. At the endpoint of the test, continued pain threshold of the plantar was detected, and the bone joints were stained with safranin fast green.

Test [1] deals with normal and senescent A549 cells. Kind of test: Senescent cell clearance index (senolytic index). Type of test: cell-based, human. Conditions: higher index = greater specificity. The procedure:
In this example, human non-small cell lung cancer cell line (A549 cells), human embryonic lung fibroblast cell line (IMR90 cells), human retinal pigment epithelial cells (RPE cells), mouse chondrocytes, and mouse skin fibroblasts were selected. The cells above were induced to obtain senescent cells by etoposide (10 μM). The effect of the target compounds RZ001-RZ006 and RZ201 on the viability of normal and senescent cells above was detected, thereby evaluating the specific killing effect of the prodrugs RZ001-RZ006 and RZ201 on senescent cells above.
Briefly, senescent and normal cells above were selected and plated separately (96-well plates). After adding the compounds RZ001-RZ006 and RZ201 (concentration: 1 μM) for 72 hours, CellTiter-Glo® Luminescent Cell Viability Assay Kit (Promega) was used to detect cell viability, and the results were shown in FIGS. 2A to 2E.
Furthermore, the senescent cell clearance index (senolytic index) was also calculated for both normal and senescent A549 cells, as shown in Table 4. A higher index indicates greater specificity in eliminating senescent cells and better safety.

The next test deals with aging skin. Put plainly: Aging skin in naturally aging mouse model. Conditions: skin application twice a week, 6 consecutive weeks; aged female mice (22 months old); FIG. 10. Type of test: in vivo. The procedure: In this example, aged female C57bl/6J mice (22 months old) were used. The drug was administered by skin application at twice a week for 6 consecutive weeks.
The test system of test [2] is idiopathic pulmonary fibrosis. Put plainly: Bleomycin idiopathic pulmonary fibrosis animal model. Type of test: in vivo, SD rats. Conditions: intraperitoneal (IP) 5 mg/kg, 3 consecutive weeks from day 7; Day 28; FIG. 6. The procedure:
In this example, the efficacy of the compounds of the present disclosure was tested on idiopathic pulmonary fibrosis in an idiopathic pulmonary fibrosis animal model. Briefly, anesthetized 6-week-old SD rats were fixed on a foam board with medical tape. Firstly, the skin on the surface of the trachea was cut with surgical scissors to fully expose the trachea, and a 100-microlitre micro-syringe containing a certain volume of bleomycin (BLM 5 mg/kg) solution drawn based on the body weight of the rat was inserted into the trachea through the oral cavity to administer by slow bolus injection. After administration of the BLM solution, the foam plate was immediately rotated and shaken to distribute the BLM solution as evenly as possible in the lung tissue. Then the skin on the surface of the trachea was sutured with surgical sutures and about 0.5 to 1.0 mL of penicillin solution was dripped onto the epidermis to prevent infection of the surgical wound. After the 7th day of modelling, the compound solution of the present disclosure was administered via intraperitoneal (IP) injection (5 mg/kg) according to the weight of the rat for 3 consecutive weeks. Rats were euthanized by carbon dioxide at Day 28, the lung tissues were removed, the left alveolar lavage fluid was collected for white blood cell (WBC) counting, the right lung tissue portion was used for hydroxyproline (HYP) assay, and the remaining lung tissues were stained for pathology by H&E staining and Masson staining.

`Cc1c(-c2ccc(N3CCc4cccc(C(=O)Nc5nc6ccccc6s5)c4C3)nc2C(=O)OCOC(=O)C(C)C)cnn1CC12CC3CC(CC(C3)C1)C2` [RZ001]: the “Aβ42 pathogenic protein indicators” value with Alzheimer's disease was “statistically significant improvements”. For the same molecule, in the test on hepatic fibrosis, the “pathology scores (liver, Masson staining)” value is reported as “statistically significant improvements”; the “serum alanine aminotransferase (ALT) levels” value was “statistically significant improvements”; the “serum aspartate aminotransferase (AST) levels” value is given as “statistically significant improvements”. Further, in the test with renal fibrosis, the “pathology (kidney, Masson staining)” value is listed as “statistically significant improvements”; the “serum creatinine (Cr) levels” value is given as “statistically significant improvements”; the “serum urea nitrogen (BUN) levels” value was “statistically significant improvements”. In the test on osteoarthritis, the “pathology scores of safranin fast green staining” value is given as “statistically significant improvements” and the “plantar mechanical pain threshold” value is recorded as “statistically significant improvements”. Also, the “senescent cell clearance index (Senolytic Index)” value in test [1] was “A (A represents more than 200)”. The “epidermal thickness scores of the skin” value with aging skin is given as “statistically significant improvements”. For the same molecule, in test [2], the “HYP (hydroxyproline, lung tissue)” value is reported as “statistically significant improvements”; the “WBC (white blood cell count, alveolar lavage fluid)” value is on record as “statistically significant improvements”; the “pathology scores (H&E and Masson staining, lung)” value is “statistically significant improvements”.

Regarding `Cc1oc(=O)oc1COC(=O)c1nc(N2CCc3cccc(C(=O)Nc4nc5ccccc5s4)c3C2)ccc1-c1cnn(CC23CC4CC(CC(C4)C2)C3)c1C` [RZ201], in the test with Alzheimer's disease, the “Aβ42 pathogenic protein indicators” value is given as “statistically significant improvements”. In the test with hepatic fibrosis, the “pathology scores (liver, Masson staining)” value is “statistically significant improvements”; the “serum alanine aminotransferase (ALT) levels” value was “statistically significant improvements”; the “serum aspartate aminotransferase (AST) levels” value is “statistically significant improvements”. Besides, in the test with renal fibrosis, the “pathology (kidney, Masson staining)” value was “statistically significant improvements”; the “serum creatinine (Cr) levels” value was “statistically significant improvements”; the “serum urea nitrogen (BUN) levels” value was “statistically significant improvements”. In the test with osteoarthritis, the “pathology scores of safranin fast green staining” value was “statistically significant improvements” and the “plantar mechanical pain threshold” value was “statistically significant improvements”. For the same molecule, the “senescent cell clearance index (Senolytic Index)” value in test [1] is listed as “A (A represents more than 200)”. For the same molecule, the “epidermal thickness scores of the skin” value in the test with aging skin is “statistically significant improvements”. Also, in test [2], the “HYP (hydroxyproline, lung tissue)” value is “statistically significant improvements”; the “WBC (white blood cell count, alveolar lavage fluid)” value is listed as “statistically significant improvements”; the “pathology scores (H&E and Masson staining, lung)” value was “statistically significant improvements”.
